Source: US20260007652A1, “Selective Modulators of AhR-Regulated Transcription and Method for Using Such Modulators to Treat Cancer” (OREGON STATE UNIVERSITY, priority 2022, published 2026)

Assays:
MDA-MB-468 cells [1] = test: Cell-Titer Glo viability assay, MDA-MB-468 AhR WT and AhR KO cells; format: cell-based, human
Protocol: (§1) Viability assays were performed by seeding cells at a density of 2000 cells per well in 96-well plates, and the following day, treating with compounds for 48 or 72 hours as indicated. Viability was determined by ATP-based Cell-Titer Glo Viability Assay (Promega, Madison WI). Luminescence was measured using the Tropix TR717 microplate luminometer. Viability of treated cells was determined by relativizing to vehicle (0.1-0.3% DMSO) treated wells. For profiling the activity of Analog 523 against the panel of triple-negative breast cancer cell lines, 72-hour treatments are represented.
Analogs of 11-Cl-BBQ were synthesized by Praxis Precision Medicines. Screening was performed using MDA-MB-468 AhR WT and AhR KO cells previously described. Cells were seeded in 10% serum or 2% serum containing media with 1% Pen/Strep at a density of 2000 cell/well in 96-well plates. 20 hours post-seeding, cells were treated with 0.1 μM, 1 μM, or 10 μM of each analog (final DMSO concentration 0.1%-0.2%). After 48 and 72 hours, cells were harvested. The ATP-Based CellTiter Glo Assay kit (Promega, Madison, WI) was used for measuring cell viability.

AhR = test: Xenobiotic response element (XRE) driven reporter in Hepa-1 cells, AhR activation; format: cell-based, mouse; conditions: 16 hours
Protocol: FIGS. 69A-69D show representative 11-Cl-BBQ analogs (848 and 849) as non-classical AHR ligands. (A) Stability of AHR protein in the H460 whole cell lysate in the presence or absence of 11-Cl-BBQ (5 μM), PRXS-848 (10 μM), and PRXS-849 (10 μM) at the indicated temperatures; GADPH was used as a loading control. (B) Localization of AHR protein in the H460 treated with 11-Cl-BBQ (100 nM), PRXS-848 (250 nM), PRXS-849 (250 nM), or vehicle control (0.1% DMSO) for two hours; top horizontal panel: AHR protein staining using an AHR-specific antibody conjugated with FITC (green) fluorophore; middle panel: DAPI staining; bottle panel: overlaid images from the top panel and the middle panel in the same column. (C) AHR activation (measured by XRE-luciferase reporter assay in Hepa1 cells) of the parental lead 11-Cl-BBQ and analogs PRXS-848 and PRXS-849 at the indicated concentrations for 16 hours. (D) AHR activation of 11-Cl-BBQ cotreated with a known AHR antagonist CH223191 (1 μM) or 11-Cl-BBQ analogs PRXS-848 and PRXS-849 at the indicated concentrations for 16 hours.
FIG. 76 presents representative AhR compounds (BBQ analogs) of the invention effective for activation of AhR transcription. Activation values greater than 1 at 100 nM were considered a hit with nanomolar affinity to promote AhR activity and synergize with the identified compounds from the synergy screens. Referring to FIG. 76, Fold@ 1 nM refers to activation of AhR transcription at 1 nM; Fold@100 nM refers to activation of AbR transcription at 100 nM; and Fold rel @ 100 refers to relative activation at 100 nM compared to parental compound, 11-Cl-BBQ. The representative AhR ligand compounds presented in FIG. 76 activate AhR transcription and therefore are useful as anti-cancer agents, either alone or in combination with the synergizing compounds (and chemotherapeutic agents) described herein.
was identified as a top hit compound based on its potent (>50% inhibition at 0.1 μM), and selective activity against AhR WT cells versus AhR KO cells (>70% difference between WT and KO cells at 10 μM) (FIG. 11). […] This confirmed Analog 523 activates AhR-mediated transcription and functions as an AhR ligand.

HCC1187 cells = test: Cell viability assay, HCC1187 TNBC cells; format: cell-based, human
Protocol: as §1

HCC70 cells = test: Cell viability assay, HCC70 TNBC cells; format: cell-based, human
Protocol: as §1

[2] = system: SKBR-3 HER2+ breast cancer cells; test: Cell viability assay, SKBR-3 HER2+ breast cancer cells; format: cell-based, human; conditions: 72 hours
Protocol: as §1

ST2 cells = test: Cell viability assay, TNBC stem cells ST2; format: cell-based; conditions: Homo sapiens, ST-2; 100 nM; 48 hours
Protocol: as §1
ST1 and ST2 cells were cultured in Mammary epithelial growth medium (Biowhitakker) (Lonza), with the following supplements: Epidermal growth factor (20 ng/mL) (Sigma), basic fibroblast growth factor (20 ng/mL) (BD Biosciences), Heparin (4 μg/mL) (Sigma), B27 Supplement (Invitrogen), Penicillin/Streptomycin (Omega), Gentamycin (35 μg/mL) (Sigma). Cells were gently passaged with Accutase solution. The isolation and characterization of the ST1 and ST2 lines have been previously described (Strietz et al., 2021).

[3] = system: primary human mammary epithelial cells (HMECs) and MCF10A; test: Cell viability, primary human mammary epithelial cells (HMECs) and MCF10A; format: cell-based; conditions: 72-hour exposure
Protocol: as §1
All cell lines, except for the ST1 and ST2 cells were purchased from ATCC, and maintained in 5% CO2, at 37° C., in DMEM or RPMI media containing 10% FBS, and 1% penicillin/streptomycin. All HCC-cell lines were maintained in RPMI. All MDA-cell lines were maintained in DMEM. ZR-75I cells were maintained in RPMI. SKBR3 cells were maintained in DMEM. MCF10A cells were maintained in DMEM/F12 medium with the following supplements added: 5% horse serum, 20 ng/mL epidermal growth factor, […] hydrocortisone, 100 ng/mL cholera toxin, 10 μg/mL insulin, 1% Pen/Strep. Primary human mammary epithelial cells (HMECs) were obtained from Lonza Biosciences (Basel, Switzerland) and were maintained according to the specified culture protocols in Clonetics™ Mammary Epithelial Basal Medium (Lonza). […]

MDA-MB-468 cells [4] = test: Transcriptional profiling by RNA-Seq, MDA-MB-468 AhR WT cells; format: cell-based, human; conditions: 250 nM
Protocol: MDA-MB-468 AhR WT and AhR KO cells were seeded in 10 cm plates (3.5 million cells/plate) and allowed to attach overnight. The following day, media was replaced with fresh media containing 250 nM of Analog 523 or Vehicle (0.1% DMSO). Treatments were performed in triplicate. At 4 hours and 12 hours post-treatment, samples were harvested by addition of 700 μL of TRK-Lysis buffer and RNA isolation then performed according to the manufacturer's instructions (E.Z.N.A. Total RNA Kit, Omega Bio-Tek, Norcross, GA). Samples were quantified and 260/280 and 260/230 values inspected by NanoDrop. Samples were then sent for quality control, library preparation (poly-A enrichment) and sequencing at Novogene. Sequencing was performed with 150 bp paired-end reads to a depth of 20 million reads […].

[5] = rats; cited from earlier work

O=c1c2cccc3cccc(c32)c2nc3ccccc3n12 [Analog 523, 7H-benzimidazo[2,1-a]benzo[de]isoquinolin-7-one]
difference between WT and KO cells (cell viability) (MDA-MB-468 cells [1]; 10 μM, AhR WT versus AhR KO): > 70%
percent inhibition of cell viability at 0.1 µM (MDA-MB-468 cells [1]; Homo sapiens, 0.1 μM, AhR WT MDA-MB-468 cells): > 50%
IC50 (MDA-MB-468 cells [1]; Homo sapiens, MDA-MB-468, 72-hour treatment): 41.2 nM
inhibition (cell viability) (MDA-MB-468 cells [1]; at <0.5 μM, 72 hours): > 50%
receptor activation (XRE reporter) (AhR; 100 μM): ~2 fold
maximal reporter induction (AhR; approximately 100 nM): 10-12 fold
IC50 (HCC1187 cells; Homo sapiens, HCC1187, 72-hour treatment): 81.7 nM
inhibition (cell viability) (HCC1187 cells; at <0.5 μM, 72 hours): > 50%
IC50 (HCC70 cells; Homo sapiens, HCC70, 72-hour treatment): 153 nM
inhibition (cell viability) (HCC70 cells; at <0.5 μM, 72 hours): > 50%
concentrations at which cell line was sensitive (viability) [2]: > 1 µM
inhibition of cell viability at 0.1 µM (ST2 cells): > 50%
inhibition of cell viability in normal mammary epithelial cells ([3]; 10 μM): ~20%
cytotoxicity in normal mammary epithelial cells ([3]; 0.01-10 μM): did not induce any cytotoxicity
BIK mRNA induction (MDA-MB-468 cells [4]): ~1.5 fold
BMF mRNA induction (MDA-MB-468 cells [4]): 4-5 fold
PMA1P1 mRNA induction (MDA-MB-468 cells [4]): ~1.5 fold
IER3 mRNA increase (MDA-MB-468 cells [4]; 12 hours): greater than 6 fold
OSGIN1 mRNA increase (MDA-MB-468 cells [4]; 12 hours): > 4 fold
LD50 [5]: 660 mg/kg
